Reference: ChEMBL document CHEMBL1125674, “Crystal, solution, and molecular modeling structural properties and muscarinic antagonist activity of azaprophen” (J Med Chem, 1991)

Tests used:
[1] = Inhibition of [3H]QNB binding towards muscarinic acetylcholine receptor in rat heart
[2] = (§1) Inhibition of [3H]pirenzepine binding towards muscarinic acetylcholine receptor in rat brain.; assay type: tissue-based
[3] = target: T1, Muscarinic acetylcholine receptors; M1 & M2 (Homo sapiens, UniProt P11229+P08172); test: Inhibition of [3H]QNB binding towards muscarinic acetylcholine receptor in guinea pig ileum.; assay type: tissue-based, Cavia porcellus; conditions: target entry is the homologue from another species
T1 sequence (P11229 whole entry): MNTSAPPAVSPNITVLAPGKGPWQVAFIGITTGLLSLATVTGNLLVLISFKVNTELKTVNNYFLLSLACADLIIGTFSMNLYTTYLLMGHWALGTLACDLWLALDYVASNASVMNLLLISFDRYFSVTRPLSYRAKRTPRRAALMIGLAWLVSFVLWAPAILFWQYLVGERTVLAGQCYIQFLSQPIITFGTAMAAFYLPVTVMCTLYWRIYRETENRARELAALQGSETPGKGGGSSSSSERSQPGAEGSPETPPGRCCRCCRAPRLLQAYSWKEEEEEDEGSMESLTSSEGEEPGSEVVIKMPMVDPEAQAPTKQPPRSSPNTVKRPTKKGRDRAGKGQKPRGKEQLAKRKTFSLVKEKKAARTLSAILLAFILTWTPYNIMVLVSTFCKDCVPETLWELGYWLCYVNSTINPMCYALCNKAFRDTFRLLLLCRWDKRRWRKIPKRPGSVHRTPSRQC
T1 sequence (P08172 whole entry): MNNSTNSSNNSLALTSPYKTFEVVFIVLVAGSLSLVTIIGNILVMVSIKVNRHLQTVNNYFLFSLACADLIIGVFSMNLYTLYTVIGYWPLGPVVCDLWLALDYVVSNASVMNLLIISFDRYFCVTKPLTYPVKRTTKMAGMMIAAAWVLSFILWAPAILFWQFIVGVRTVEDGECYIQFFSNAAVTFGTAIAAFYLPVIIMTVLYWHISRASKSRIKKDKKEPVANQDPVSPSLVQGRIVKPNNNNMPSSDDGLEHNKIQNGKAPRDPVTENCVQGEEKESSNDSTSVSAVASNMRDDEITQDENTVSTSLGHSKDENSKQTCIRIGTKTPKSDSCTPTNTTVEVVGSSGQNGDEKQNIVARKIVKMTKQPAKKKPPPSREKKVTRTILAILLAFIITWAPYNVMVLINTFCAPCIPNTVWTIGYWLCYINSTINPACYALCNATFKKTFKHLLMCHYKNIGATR

[4] = Inhibition of [3H]QNB binding towards muscarinic acetylcholine receptor in rat brain; assay type: tissue-based
[5] = target: Muscarinic acetylcholine receptor M3 (Homo sapiens, UniProt P20309); test: Inhibition of [3H]QNB binding to CHO cells bearing transfected muscarinic acetylcholine receptor M3; assay type: cell-based, Cricetulus griseus
Sequence of Muscarinic acetylcholine receptor M3 (P20309 whole entry, looked up): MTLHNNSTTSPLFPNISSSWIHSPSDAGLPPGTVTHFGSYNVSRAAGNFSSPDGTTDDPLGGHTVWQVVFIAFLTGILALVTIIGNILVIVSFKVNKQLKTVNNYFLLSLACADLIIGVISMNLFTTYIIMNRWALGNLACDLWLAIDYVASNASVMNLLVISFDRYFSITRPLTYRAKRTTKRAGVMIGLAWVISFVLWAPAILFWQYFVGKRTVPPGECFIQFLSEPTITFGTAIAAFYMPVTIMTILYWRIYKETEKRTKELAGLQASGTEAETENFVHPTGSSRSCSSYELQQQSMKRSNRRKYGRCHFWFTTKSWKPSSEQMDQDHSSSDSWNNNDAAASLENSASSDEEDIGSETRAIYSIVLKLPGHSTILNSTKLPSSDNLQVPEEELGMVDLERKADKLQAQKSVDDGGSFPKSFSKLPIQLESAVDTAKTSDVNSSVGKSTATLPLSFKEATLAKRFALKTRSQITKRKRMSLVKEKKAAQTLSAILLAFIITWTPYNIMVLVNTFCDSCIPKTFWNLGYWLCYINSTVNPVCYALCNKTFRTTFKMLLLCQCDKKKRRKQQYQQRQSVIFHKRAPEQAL

[6] = target: T2, Muscarinic acetylcholine receptor M1 (Homo sapiens, UniProt P11229); test: Inhibition of [3H]QNB binding to CHO cells bearing transfected muscarinic acetylcholine receptor M1; assay type: cell-based, Cricetulus griseus
T2 sequence (P11229 whole entry): T1 sequence (P11229 whole entry)

[7] = as §1

SMILES	Ki [1] [nM]	Ki [2] [nM]	Ki [3] [pM]	Ki [4] [nM]	Ki [5] [nM]	Ki [6] [nM]	Ki [7] [nM]
CN1CC2CC(OC(=O)C(C)(c3ccccc3)c3ccccc3)CC1C2 (stereo not drawn) [AZAPROPHEN]	0.13	0.196	279	0.118	0.472	0.088	
CN1[C@@H]2CC[C@H]1C[C@@H](OC(=O)C(CO)c1ccccc1)C2 (stereo partly drawn) [ATROPINE]	0.545						0.545
